{
  "source": "patent US20160367622A1",
  "about": "“AGONISTS OF GUANYLATE CYCLASE USEFUL FOR THE TREATMENT OF OPIOID INDUCED DYSFUNCTIONS” (priority 2013, published 2016)",
  "key": {"[1]": {"tested_on": "female Sprague-Dawley CD rats", "assay": "methadone-induced constipation in rats (fecal output)", "type": "in vivo, rat", "description": "To identify the methadone dose that induces constipation in rats, female Sprague-Dawley CD rats 7 to 8 weeks of age (n=6/group) were administered 0 (vehicle), 2.5, 5, and 7.5 mg/kg of methadone (1.5 ml/kg dose volume) by IP injection once a day for 5 days. Fecal pellets were collected at 4 h intervals during the light cycle and average number of pellets was recorded for each group during the course of the study following daily dose administrations of methadone.\nTo evaluate the ability of SP-333 to relieve methadone-induced constipation, female Sprague-Dawley CD rats 7 to 8 weeks of age (n=7/group) were administered 5 mg/kg of methadone (or vehicle) each day for 7 days via IP injection to induce constipation. Ten minutes following the IP dose each day, an oral gavage of 2.5, and 5 mg/kg of SP-333 or vehicle (buffer) was administered. Fecal pellets were collected at 4 h intervals during the light cycle and average number of pellets recorded for each group during the course of the study following daily administration of vehicle, methadone or combination of methadone and SP-333."}, "[2]": {"tested_on": "opioid naïve animals (rats)", "assay": "GI transit after single oral gavage dose in opioid naïve rats", "type": "in vivo, rat"}, "T84 cells": {"tested_on": "T84 cells", "assay": "cyclic GMP and cyclic AMP production in T84 cells", "type": "cell-based, human", "settings": "0.01, 0.1, 1, or 10 μM SP-333", "description": "FIG. 3A-B is a series of graphs showing that SP-333 stimulates cyclic GMP, but not cyclic AMP production in T84 cells. Cells were treated with either control, IBMX, SP-333 ([…]), forskolin (FSK) or FSK+IBMX.\nThe results are depicted in FIG. 3A-B. T84 cells were treated with either control, IBMX, forskolin (FSK), or 0.01, 0.1, 1, or 10 μM SP-333, and the production of cGMP or cAMP measured (pmoles/well). CPT-cGMP and CPT-cAMP both stimulate Isc across T84 cell monolayers."}, "[3]": {"tested_on": "patients with symptoms of OIC treated for non-malignant chronic pain with opioid therapy", "assay": "randomized 4-week placebo-controlled dose-ranging study in OIC: safety", "type": "in vivo, human", "settings": "for All AEs: preliminary safety top line", "source_text": "A Randomized, 4-Week, Double-Blind, Placebo-Controlled, Dose-Ranging Study to Assess the Safety and Efficacy of Sp-333 for the Treatment of Opioid-Induced Constipation (OIC) in Patients with Non-Malignant Chronic Pain Receiving Opioid Therapy\nTo assess the safety and tolerability of SP-333. To evaluate the pharmacodynamic effects of SP-333. To evaluate the pharmacokinetic properties of SP-333.\nThe primary efficacy endpoint was to determine the mean change from baseline in the number of […] (SBMs) during Week 4 of the Treatment Period. Safety was assessed by analysis of the frequency of treatment-emergent adverse events (TEAEs), adverse events leading to withdrawal, and serious adverse events (SAEs)."}, "[4]": {"tested_on": "female Sprague-Dawley rats", "assay": "methadone-induced delay in rat GI transit (charcoal meal)", "type": "in vivo", "settings": "2.5 mg/kg methadone IP", "description": "Animals: All study procedures were conducted under a study outline approved by the Institutional Animal Care and Use Committee of MB Research Labs (Spinnerstown, Pa.) or Lampire Biological Laboratories (Pipersville, Pa.). Seven to eight week old female Sprague-Dawley rats [Crl:CD(SD)], weighing between ˜180-210 grams, were obtained from Charles River Laboratories and allowed to acclimate for a week. Animals were maintained on a 12 hour light-dark cycle. For intestinal tissue collection and evaluation of GI transit, rats were fasted for at least 18 hours before the experiment, with free access to water.\nThe ability of opioids to delay GI transit in rats was tested by either administering 0 (vehicle) 0.25, 1 and 2.5 mg/kg of morphine or 0 (vehicle), 0.25, 2.5 and 5 mg/kg of methadone (1.5 ml/kg dose volume) by IP injection. Water served as vehicle control. Ten minutes later, a 2 mL charcoal meal consisting of 10% activated charcoal (Sigma-Aldrich, St. Louis, Mo.) and 10% gum Arabic (Sigma-Aldrich, St. Louis, Mo.) in water was administered via oral gavage. Rats were euthanized 10 min after the charcoal meal via IP injection of 150 mg/kg Beuthanasia-D solution (sodium pentobarbital, 390 mg/mL). The small intestine was removed and the total length from the pyloric sphincter to the ileocecal junction was recorded, as well as the distance traveled by the leading edge of the charcoal. Intestinal transit was determined by calculating the ratio (expressed as a percentage) of the distance between the pyloric sphincter and the leading edge of the charcoal to the distance between the pyloric sphincter and the ileocecal junction.\nTo evaluate the ability of SP-333 to reverse methadone induced delayed GI transit, animals were administered 2.5 mg/kg of methadone by IP injection. Ten minutes later, an oral gavage of 0 (vehicle), 0.1, 0.5, 2.5, 5 and 50 mg/kg of SP-333 (1.5 ml/kg dose volume) was administered followed immediately by a 2 mL oral gavage of the charcoal meal. Ten minutes after the charcoal meal, animals were euthanized and intestinal transit was calculated as described above."}, "[5]": {"tested_on": "female Sprague-Dawley CD rats", "assay": "GI transit delay induced by repeated methadone administration in rats", "type": "in vivo, rat", "settings": "SP-333 oral daily", "description": "The ability of SP-333 to alleviate GI transit delay induced by repeated methadone administration was also evaluated in the similar manner. Female Sprague-Dawley CD rats 7 to 8 weeks of age (n=7/group) received via IP injection 16 doses of methadone (once daily; 7 doses @ 5 mg/kg and 9 doses @ 2.5 mg/kg). Ten minutes following each methadone dose, each group received an oral gavage of vehicle, 2.5, and 5 mg/kg of SP-333. At the end of the dosing regimen, animals were fasted overnight and GI transit was evaluated as described above."}},
  "note": "Entries after “also recorded” stand apart in the source; their conditions may differ. Positions of bridges follow the written chain, without caps; N, C: chain ends. Non-standard residues stand in square brackets, D forms with d. Residues, ends and D or L forms follow the SMILES beside them.",
  "data": [
    {"smiles": "CC(C)C[C@@H]1NC(=O)[C@H](CCC(=O)O)NC(=O)[C@@H](NC(=O)[C@H](CCC(=O)O)NC(=O)[C@H](CC(=O)O)NC(=O)[C@H](N)CC(N)=O)CSSC[C@@H]2NC(=O)[C@H](C)NC(=O)[C@H](C(C)C)NC(=O)[C@H](CC(N)=O)NC(=O)[C@H](C(C)C)NC(=O)[C@H](CSSC[C@@H](C(=O)N[C@H](CC(C)C)C(=O)O)NC(=O)CNC(=O)[C@H]([C@@H](C)O)NC2=O)NC1=O", "note": "[SP-333, dAsn^1-Asp^2-Glu^3-Cys^4-Glu^5-Leu^6-Cys^7-Val^8-Asn^9-Val^10-Ala^11-Cys^12-Thr^13-Gly^14-Cys^15-dLeu^16] (H-[dN]DECELCVNVACTGC[dL]-OH; disulfide 4-12, 7-15)", "values": [
      {"measurement": "pellet count compared to the methadone dosed group", "setting": "[1]; SP-333 2.5 mg/kg oral daily 10 min after methadone (5 mg/kg 7 days, then 2.5 mg/kg days 8-16)", "result": "threefold increase; also recorded: significantly relieved methadone-induced constipation"},
      {"measurement": "average number of pellets / fecal output compared to the methadone dosed group", "setting": "[1]; SP-333 2.5 and 5 mg/kg oral daily after methadone (5 mg/kg 7 days, then 2.5 mg/kg days 8-16)", "result": "partially restored fecal output; also recorded: higher compared to the methadone dosed group"},
      {"measurement": "increase in small intestinal (GI) transit compared to vehicle controls", "setting": "[2]; 0.05 mg/kg single oral gavage", "result": 5.6, "unit": "%"},
      {"measurement": "increase in small intestinal (GI) transit compared to vehicle controls", "setting": "[2]; 0.5 mg/kg single oral gavage", "result": 13, "unit": "%"},
      {"measurement": "increase in small intestinal (GI) transit compared to vehicle controls", "setting": "[2]; 5 mg/kg single oral gavage", "result": 23, "unit": "%"},
      {"measurement": "cAMP production", "setting": "T84 cells", "result": "not cAMP synthesis; also recorded: does not result in an increase of cAMP production"},
      {"measurement": "cGMP production", "setting": "T84 cells", "result": "stimulates cGMP synthesis; also recorded: concentration dependent increase in cGMP levels"},
      {"measurement": "Diarrhea", "setting": "[3]; 1 mg (n 74)", "result": "3 (4%) n (%)"},
      {"measurement": "Diarrhea Drop", "setting": "[3]; 1 mg (n 74)", "result": "0 (0%) n (%)"},
      {"measurement": "Drops for AE", "setting": "[3]; 1 mg (n 74)", "result": "1 (1.4%) n (%)"},
      {"measurement": "All AEs", "setting": "[3]; 1 mg (n 74)", "result": "19 (25.7%) n (%)"},
      {"measurement": "patients with TEAE leading to study treatment discontinuation", "setting": "[3]; 1 mg group", "result": 1.4, "unit": "%"},
      {"measurement": "Diarrhea", "setting": "[3]; 3 mg (n 70)", "result": "4 (5.4%) n (%)"},
      {"measurement": "Diarrhea Drop", "setting": "[3]; 3 mg (n 70)", "result": "0 (0%) n (%)"},
      {"measurement": "Drops for AE", "setting": "[3]; 3 mg (n 70)", "result": "2 (2.9%) n (%)"},
      {"measurement": "serious adverse events: Chest Pain", "setting": "[3]; 3 mg (n 70)", "result": "1 (1.4%) n (%)"},
      {"measurement": "All AEs", "setting": "[3]; 3 mg (n 70)", "result": "16 (22.9%) n (%)"},
      {"measurement": "patients with TEAE leading to study treatment discontinuation", "setting": "[3]; 3 mg group", "result": 2.9, "unit": "%"},
      {"measurement": "Diarrhea", "setting": "[3]; 6 mg (n 72)", "result": "7 (9.7%) n (%)"},
      {"measurement": "Diarrhea Drop", "setting": "[3]; 6 mg (n 72)", "result": "2 (2.9%) n (%)"},
      {"measurement": "Drops for AE", "setting": "[3]; 6 mg (n 72)", "result": "5 (6.9%) n (%)"},
      {"measurement": "serious adverse events: Death (metastatic HCC)", "setting": "[3]; 6 mg (n 72)", "result": "1 (1.4%) n (%)"},
      {"measurement": "All AEs", "setting": "[3]; 6 mg (n 72)", "result": "23 (31.9%) n (%)"},
      {"measurement": "patients with TEAE leading to study treatment discontinuation", "setting": "[3]; 6 mg group", "result": 6.9, "unit": "%"},
      {"measurement": "percentage of patients experiencing at least 1 TEAE", "setting": "[3]; SP-333 1 mg (placebo 27.4%)", "result": 25.7, "unit": "%"},
      {"measurement": "percentage of patients experiencing at least 1 TEAE", "setting": "[3]; SP-333 3 mg (placebo 27.4%)", "result": 22.9, "unit": "%"},
      {"measurement": "percentage of patients experiencing at least 1 TEAE", "setting": "[3]; SP-333 6 mg (placebo 27.4%)", "result": 31.9, "unit": "%"},
      {"measurement": "most frequently reported TEAE", "setting": "[3]; in vivo", "result": "diarrhea"},
      {"measurement": "GI transit in methadone-treated rats", "setting": "[4]; then SP-333 0.5 mg/kg oral gavage", "result": 40, "unit": "%"},
      {"measurement": "GI transit in methadone-treated rats", "setting": "[4]; then SP-333 2.5 mg/kg oral gavage", "result": 39, "unit": "%"},
      {"measurement": "GI transit in methadone-treated rats", "setting": "[4]; then SP-333 5 mg/kg oral gavage", "result": 44, "unit": "%"},
      {"measurement": "GI transit in methadone-treated rats", "setting": "[4]; then SP-333 50 mg/kg oral gavage", "result": 52, "unit": "%"},
      {"measurement": "GI-transit delay caused by repeated methadone dosing", "setting": "[5]; 16 daily methadone doses (7 at 5 mg/kg, 9 at 2.5 mg/kg)", "result": "normalized GI transit; also recorded: relieved the GI-transit delay; also recorded: relieves methadone-induced GI transit delay; also recorded: statistically significant improvement in GI transit delay"},
      {"measurement": "GI-transit delay caused by repeated methadone dosing", "setting": "[5]; methadone 2.5 mg/kg IP daily 9 days", "result": "relieved the GI-transit delay"}
    ]}
  ]
}
